In PubChem BioAssay (NCI):
“And” between values parts separate entries of the source, which are not always exact repeats. Equal entries are not always repeated.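 Exposure lasted 48 hours, with cells grown in 96-well plates and compounds tested at five concentrations. The concentration for 50% growth inhibition is given as GI50. TGI: total growth inhibition.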

Tests used:
Assay in all cases: NCI anticancer screen, dose series, 48 h
MDA-MB-231 breast = test system: MDA-MB-231 breast
DLD-1 colon = test system: DLD-1 colon
DU-145 prostate = test system: DU-145 prostate
NCI/ADR-RES ovarian = test system: NCI/ADR-RES ovarian
MDA-MB-435 = test system: MDA-MB-435
HOP-18 NSCLC = test system: HOP-18 NSCLC
XF 498 CNS = test system: XF 498 CNS
DMS 273 small cell lung = test system: DMS 273 small cell lung
SNB-78 CNS = test system: SNB-78 CNS
M19-MEL melanoma = test system: M19-MEL melanoma

Row | SMILES | TGI (MDA-MB-231 breast) [µM] | TGI (DLD-1 colon) | TGI (DU-145 prostate) [µM] | TGI (NCI/ADR-RES ovarian) | TGI (MDA-MB-435) [µM] | TGI (HOP-18 NSCLC) | TGI (XF 498 CNS) | TGI (DMS 273 small cell lung) | TGI (SNB-78 CNS) | TGI (M19-MEL melanoma) | GI50 (NCI/ADR-RES ovarian) | GI50 (XF 498 CNS) [µM] | GI50 (DMS 273 small cell lung) [µM] | GI50 (SNB-78 CNS) [µM] | GI50 (M19-MEL melanoma) [µM]
1 | O=C(O)CNCc1c2ccccc2nc2ccccc12 | > 100 | > 100 µM | > 100 | > 100 µM | > 100 | > 100 µM | > 77.6 µM | > 100 µM | > 100 µM | > 100 µM |  |  |  |  | 
2 | CCCCCCCC(=O)O[C@H]1[C@H]2[C@@H](CC1(C)C)C(=O)[C@]13O[C@H]1C(=O)[C@]1(CO1)[C@]23C | 44.5 | 3.6 µM and 7.46 µM | 27.9 | 5.26 µM and 9.64 µM | 75 | 9.3 µM and 12.8 µM | 5.59 µM and 6.23 µM | 22.9 µM and 15.3 µM | 26.6 µM and 13.5 µM | 4.91 µM and 8.92 µM | 2.39 µM and 1.72 µM | 2.71 | 10.5 | 12.1 | 2.09
3 | CCOc1c(Cc2ccccc2)c(=O)n2c3ccccc3n3c(=O)n(C)c(=O)c1c23 |  | > 100 µM |  |  |  | > 100 µM | > 100 µM | > 100 µM | > 100 µM | > 100 µM |  |  |  |  | 
4 | CC1CC(=O)CC[C@@H]1OCc1ccccc1 (some centres not stated) |  | > 100 µM |  |  |  | > 100 µM | > 100 µM | > 100 µM | > 100 µM | > 100 µM |  |  |  |  | 
